Measurements as given in patent US20230330254A1 (Regeneron Pharmaceuticals, Inc., priority 2022, published 2023).
pEC50, pIC50: −log10 of the molar value. *1 amine or outer side, *2 acyl side, *3 side chain or, on linkers, in order; H or OH if unused. Where a SMILES comes first, the peptide text is derived from it. Side-chain parts run from the residue outwards. [ ]: non-standard residue; d: D form. The star is where a group is joined. PEG24 = NCCOCCOCCOCCOCCOCCOCCOCCOCCOCCOCCOCCOCCOCCOCCOCCOCCOCCOCCOCCOCCOCCOCCOCCOCCC(=O)O; Bip(2'-Et-4'-O(CH2)4NH2) = CCc1cc(OCCCCN[*:3])ccc1-c1ccc(C[C@H](N[*:1])C(=O)[*:2])cc1; Bip(2'-Et,4'-O(CH2)4N3) = CCc1cc(OCCCCN=[N+]=[N-])ccc1-c1ccc(C[C@H](N)C(=O)O)cc1; Malonyl(2,2-Me2,histaminyl) = CC(C)(C(=O)NCCc1cnc[nH]1)C(=O)*; Nva(5-(3,5-Me2Ph)) = Cc1cc(C)cc(CCC[C@H](N)C(=O)O)c1; Ala(1H-tetrazol-5-yl) = N[C@@H](Cc1nnn[nH]1)C(=O)O; αMePhe(2-F) = C[C@](N)(Cc1ccccc1F)C(=O)O; DBCO = C1#Cc2ccccc2N(*)Cc2ccccc21; Suc = O=C(CCC(=O)[*:2])[*:1]

Assays:
HEK293/CRE-Luc cells [1] = assay: Luciferase reporter assay, HEK293/CRE-Luc cells without GLP1R (Example 17); format: cell-based, human; conditions: HEK293/CRE-Luc cells without hGLP1R, payloads and linker-payloads; for pEC50: read-out: EC50
How it was run: (§1)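 HEK293 cells carrying a CRE-driven firefly luciferase reporter were exposed to 3-fold serial dilutions of payloads or linker-payloads (12 points, 0.2% DMSO final) for 4–6 h, then luminescence was read. EC50 came from a four-parameter logistic fit; S/N is top RLU over untreated wells, and relative potency and S/N are referenced to M2361.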

human GLP1R [2] = molecular target: T1, human GLP1R (Homo sapiens, UniProt P43220); assay: Luciferase reporter assay, HEK293/CRE-Luc/hGLP1R (Example 17); format: cell-based; set-up: engineered to express full-length human GLP1R, cynomolgus GLP1R; expressed in transfected cells; host or cells: HEK293/CRE-Luc; conditions: HEK293/CRE-Luc/hGLP1R; for S/N: highest RLU / RLU of untreated wells; for Relative Potency (% M2361 EC50) / Relative Signal:Noise (% M2361): relative to M2361 of the same experiment
How it was run: as §1

HEK293/CRE-Luc cells [3] = assay: Luciferase reporter assay, HEK293/CRE-Luc cells without hGLP1R (Example 11); format: cell-based, human; conditions: Experiment A
How it was run: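 Counter-screen in HEK293 cells carrying CRE-driven firefly luciferase without hGLP1R; 3-fold serial dilutions of payloads or linker-payloads at 0.2% final DMSO, 4–6 h.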

human GLP1R [4] = molecular target: T1, human GLP1R; assay: Luciferase reporter assay, HEK293/CRE-Luc/hGLP1R cells (Example 11); format: cell-based; set-up: engineered to express full-length human GLP1R, cynomolgus GLP1R; expressed in transfected cells; host or cells: HEK293/CRE-Luc
human GLP1R [5] = molecular target: T1, human GLP1R; assay: CRE-luciferase reporter assay, HEK293/Myc-hGLP1R/Cre-Luc (Example 9); format: cell-based; set-up: engineered to express full-length human GLP1R, cynomolgus GLP1R; expressed in transfected cells; host or cells: HEK293/CRE-Luc; conditions: Table 9; 5.5 h; read-out: HEK293/Myc-hGLP1R/Cre-Luc EC50
Experimental: To test the activity of GLP1R agonist payloads and GLP1R agonist linker-payloads (LPs) in vitro, a cell-based cAMP responsive luciferase reporter assay was developed.
Cells were incubated overnight at 37° C. in 5% CO2. […] Plates were incubated for 5.5 h at 37° C. in 5% CO2. For end-point measurement, 100 μL/well of One-Glo reagent (Promega, #E6051) was added and plates were kept at room temperature for 5-10 minutes. Luciferase activity was measured on Envision Multilabel Plate Reader (Perkin Elmer) in Luminescent mode. The relative light units (RLU) values were obtained and the results were analyzed using nonlinear regression with GraphPad Prism software (GraphPad).

human GLP1R [6] = molecular target: T1, human GLP1R; assay: Human GLP1R cAMP accumulation assay; format: cell-based; set-up: HEK293 cells over-expressing full length human GLP-1R were utilized; expressed in transfected cells; host or cells: HEK293 (HEK293/hGLP1R); conditions: HEK293/hGLP1R cells; Table 4; read-out: cAMP EC50
How it was run: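 cAMP accumulation measured after 30 min at 23° C, with 500 μM IBMX in HEPES-buffered HBSS plus 0.1% BSA, in HEK293 cells expressing full-length hGLP-1R. Levels read by D2-cAMP/antibody immunoassay via standard curve, scaled between low and high controls. EC50 fitted four-parameter over a 10-point curve.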

hERG potassium channels = hERG potassium channels (Homo sapiens, UniProt Q12809); assay: cell-based
Experimental: For the assay, CHO cells stably expressing hERG potassium channels were plated and cultured for at least 2 days in a humidified and air-controlled (5% CO2) incubator at 37° C. prior to use in electrophysiological experiments. Cells were then harvested using TrypLE and resuspended in physiological solution (10 mM HEPES, 80 mM NaCl, 4 mM KCl, 2 mM CaCl2, 1 mM MgCl2, 5 mM Glucose, 60 mM NM DG, pH 7.4). Test compounds were dissolved in water to obtain stock solutions for different test concentrations. […] One 40 μL addition of the vehicle was applied, followed by a 300s baseline recording period. […] Recordings were required to pass quality control over the duration of the recording or the well was abandoned, and the compound was retested, all automatically set by PatchControl. […] A minimum of 2 replicates per concentration were obtained. […] Curve-fitting and IC50 value calculations were performed by GraphPad Prism 5.0.

[7] = Plasma stability of payloads and linker-payloads, human plasma; format: in vitro ADME; conditions: plasma, pH 7.4, tested time A (1 day per footnote), 2 μM, 37° C., read-out: Human plasma stability assay T½ (converted)
How it was run: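 Pooled plasma, pH adjusted to 7.4±0.1 where needed, spiked to 2 μM compound (duplicate) and incubated at 37 °C. At each time point, protein was precipitated with ACN/MeOH stop solution containing internal standards; remaining compound quantified in supernatant by LC-MS/MS.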

T1 sequence (P43220 24-463): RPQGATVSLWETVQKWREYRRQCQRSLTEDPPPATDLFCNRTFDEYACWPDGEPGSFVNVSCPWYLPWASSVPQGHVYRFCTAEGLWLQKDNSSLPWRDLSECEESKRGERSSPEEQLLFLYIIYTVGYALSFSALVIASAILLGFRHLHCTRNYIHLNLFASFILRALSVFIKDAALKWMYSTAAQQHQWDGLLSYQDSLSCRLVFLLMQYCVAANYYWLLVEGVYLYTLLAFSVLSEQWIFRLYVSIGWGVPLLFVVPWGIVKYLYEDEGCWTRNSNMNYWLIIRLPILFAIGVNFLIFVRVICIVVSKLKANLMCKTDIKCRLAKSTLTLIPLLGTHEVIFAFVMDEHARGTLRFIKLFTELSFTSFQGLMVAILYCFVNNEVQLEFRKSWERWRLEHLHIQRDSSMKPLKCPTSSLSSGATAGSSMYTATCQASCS
Sequence of hERG potassium channels (Q12809 whole entry): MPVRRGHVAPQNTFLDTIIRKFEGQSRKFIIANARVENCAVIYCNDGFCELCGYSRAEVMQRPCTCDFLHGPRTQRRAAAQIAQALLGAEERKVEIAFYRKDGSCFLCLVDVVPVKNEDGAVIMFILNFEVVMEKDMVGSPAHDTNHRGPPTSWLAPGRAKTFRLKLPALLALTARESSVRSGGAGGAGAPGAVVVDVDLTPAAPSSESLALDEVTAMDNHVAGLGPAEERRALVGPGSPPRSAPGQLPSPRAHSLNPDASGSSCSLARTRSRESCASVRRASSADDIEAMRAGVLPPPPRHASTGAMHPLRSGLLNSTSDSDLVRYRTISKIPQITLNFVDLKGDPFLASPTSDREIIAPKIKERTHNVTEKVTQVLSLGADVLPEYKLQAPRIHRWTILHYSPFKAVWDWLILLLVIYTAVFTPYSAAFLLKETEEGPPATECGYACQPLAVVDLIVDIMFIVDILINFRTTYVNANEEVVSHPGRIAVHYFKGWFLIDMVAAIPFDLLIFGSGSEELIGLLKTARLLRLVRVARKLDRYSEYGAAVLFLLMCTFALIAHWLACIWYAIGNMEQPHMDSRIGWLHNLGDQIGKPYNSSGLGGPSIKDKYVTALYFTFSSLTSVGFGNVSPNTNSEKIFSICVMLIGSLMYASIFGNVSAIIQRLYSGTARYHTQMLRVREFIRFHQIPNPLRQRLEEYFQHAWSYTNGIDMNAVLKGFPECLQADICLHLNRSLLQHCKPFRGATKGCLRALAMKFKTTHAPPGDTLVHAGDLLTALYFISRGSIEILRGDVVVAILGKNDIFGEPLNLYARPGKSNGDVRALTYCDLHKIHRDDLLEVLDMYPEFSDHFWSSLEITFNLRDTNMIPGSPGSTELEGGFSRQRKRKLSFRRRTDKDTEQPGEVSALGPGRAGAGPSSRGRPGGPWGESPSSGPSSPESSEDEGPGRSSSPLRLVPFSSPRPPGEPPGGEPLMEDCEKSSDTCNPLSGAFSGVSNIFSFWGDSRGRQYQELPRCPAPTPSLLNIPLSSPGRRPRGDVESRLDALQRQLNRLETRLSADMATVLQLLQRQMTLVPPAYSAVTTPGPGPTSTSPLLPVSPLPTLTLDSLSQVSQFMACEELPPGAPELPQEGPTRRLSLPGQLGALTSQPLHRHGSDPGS

## CCc1cc(OCCCCNC(=O)CCOCCOCCOCCOCCOCCOCCOCCOCCOCCOCCOCCOCCOCCOCCOCCOCCOCCOCCOCCOCCOCCOCCOCCOCCNC(=O)CCC(=O)N2Cc3ccccc3C#Cc3ccccc32)ccc1-c1ccc(C[C@H](NC(=O)[C@H](CC(=O)O)NC(=O)[C@H](CO)NC(=O)[C@@H](NC(=O)[C@](C)(Cc2ccccc2F)NC(=O)[C@@H](NC(=O)CNC(=O)[C@H](Cc2nn[nH]n2)NC(=O)C(C)(C)C(=O)NCCc2cnc[nH]2)[C@@H](C)O)[C@@H](C)O)C(=O)N[C@@H](CCCc2cc(C)cc(C)c2)C(N)=O)cc1 [LP4, DIBAC-suc-PEG24-P9] ({Malonyl(2,2-Me2,histaminyl)}-[Ala(1H-tetrazol-5-yl)]GT[αMePhe(2-F)]TSD[Bip(2'-Et-4'-O(CH2)4NH2)]([PEG24-Suc-DBCO])[Nva(5-(3,5-Me2Ph))]-NH2)
HEK293/CRE-Luc cells [1]
  S/N: 1.7
  pEC50: < 6.70
Human GLP1R [2]
  S/N: 63.8
  Relative Potency (% M2361 EC50): 4.2%
  Relative Signal:Noise (% M2361): 97.1%
HEK293/CRE-Luc cells [3]; Table 11, no hGLP1R expression
  pEC50: < 6.70
  HEK293/CRE-LUC S/N: 1.7
Human GLP1R [4]; Table 11, Experiment A
  pEC50: 9.90
  HEK293/CRE-LUC/hGLP1R Relative Potency (% P8 EC50): 4.2%
  HEK293/CRE-LUC/hGLP1R S/N: 63.8
Human GLP1R [5]
  pEC50: 10.15

## CCc1cc(OCCCCn2cc(COCCOCCOCCOCCNC(=O)COC3C#CCCCCC3)nn2)ccc1-c1ccc(C[C@H](NC(=O)[C@H](CC(=O)O)NC(=O)[C@H](CO)NC(=O)[C@@H](NC(=O)[C@](C)(Cc2ccccc2F)NC(=O)[C@@H](NC(=O)CNC(=O)[C@H](Cc2nn[nH]n2)NC(=O)C(C)(C)C(=O)NCCc2cnc[nH]2)[C@@H](C)O)[C@@H](C)O)C(=O)N[C@@H](CCCc2cc(C)cc(C)c2)C(N)=O)cc1 (some centres unmarked) [LP10, COT-PEG4-triazole-P8]
HEK293/CRE-Luc cells [1]
  S/N: 1.1
  pEC50: < 6.70
Human GLP1R [2]
  S/N: 51.7
  Relative Potency (% M2361 EC50): 13.6%
  Relative Signal:Noise (% M2361): 78.7%
Human GLP1R [2]; payloads and linker-payloads, experiments A-E, M2361 repeated in each, read-out: EC50
  pEC50: 10.41
Human GLP1R [6]
  pEC50: 9.01
hERG potassium channels
  pIC50: < 4.00

## CCc1cc(OCCCCN=[N+]=[N-])ccc1-c1ccc(C[C@H](NC(=O)[C@H](CC(=O)O)NC(=O)[C@H](CO)NC(=O)[C@@H](NC(=O)[C@](C)(Cc2ccccc2F)NC(=O)[C@@H](NC(=O)CNC(=O)[C@H](Cc2nn[nH]n2)NC(=O)C(C)(C)C(=O)NCCc2cnc[nH]2)[C@@H](C)O)[C@@H](C)O)C(=O)N[C@@H](CCCc2cc(C)cc(C)c2)C(N)=O)cc1 [P8] ({Malonyl(2,2-Me2,histaminyl)}-[Ala(1H-tetrazol-5-yl)]GT[αMePhe(2-F)]TSD[Bip(2'-Et,4'-O(CH2)4N3)][Nva(5-(3,5-Me2Ph))]-NH2)
[7]
  half-life at 2 µM: > 57.8 h
HEK293/CRE-Luc cells [3]; Table 11, no hGLP1R expression
  pEC50: < 6.70
  HEK293/CRE-LUC S/N: 1.5
HEK293/CRE-Luc cells [3]; Table 12
  pEC50: < 7.70
  HEK293/CRE-Luc S/N: 1.3
Human GLP1R [6]
  pEC50: 9.30
Human GLP1R [4]; Table 11, Experiment A
  pEC50: 11.27
  HEK293/CRE-LUC/hGLP1R Relative Potency (% P8 EC50): 100.0%
  HEK293/CRE-LUC/hGLP1R S/N: 65.8
Human GLP1R [4]; Table 11, Experiment B
  pEC50: 10.70
  HEK293/CRE-LUC/hGLP1R Relative Potency (% P8 EC50): 100.0%
  HEK293/CRE-LUC/hGLP1R S/N: 327.9
Human GLP1R [4]; Table 11, Experiment D
  pEC50: 10.56
  HEK293/CRE-LUC/hGLP1R Relative Potency (% P8 EC50): 100.0%
  HEK293/CRE-LUC/hGLP1R Relative Signal:Noise (% P8): 100.0%
  HEK293/CRE-LUC/hGLP1R S/N: 235.9
Human GLP1R [4]; Table 12, Experiment A
  pEC50: 10.79
  HEK293/CRE-Luc/hGLP1R Relative Potency (% P8 EC50): 100.0%
  HEK293/CRE-Luc/hGLP1R Relative Signal:Noise (% P8): 100.0%
  HEK293/CRE-Luc/hGLP1R S/N: 64.3
Human GLP1R [4]; Table 12, Experiment D
  pEC50: 10.56
  HEK293/CRE-Luc/hGLP1R Relative Potency (% P8 EC50): 100.0%
  HEK293/CRE-Luc/hGLP1R Relative Signal:Noise (% P8): 100.0%
  HEK293/CRE-Luc/hGLP1R S/N: 235.9
Human GLP1R [5]
  pEC50: 11.12
